Measured values: patent publication US7202218B2, “Oligopeptide antagonist of interleukin-6” (National Taiwan University, priority 2005, dated 2007)
Where no end group is shown, it is not given here.

What was measured:
VEGF-A = VEGF-A secretion, quantitative sandwich ELISA of conditioned medium; type: cell-based; settings: C33A, RPMI 8226 and BCC cells (all three cell lines); 24 hours; FIG. 5
Protocol: (§1) C33A cervical cancer cells, RPMI 8226 multiple myeloma cells and basal cell carcinoma (BCC) cells, vectors (negative control) were cultivated respectively in DMEM containing 10% FBS, penicillin (100 units/ml), and streptomycin (100 μg/mL) as well as IL-6 protein. At 90% confluence, culture medium was replaced with serum-free medium. IL-6 containing C33A cells were incubated with S1 or S7 peptide for another 24 hours. Conditioned medium (CM) was collected after centrifugation of cellular debris.
The conditioned medium (CM) was concentrated using an Amicon ultracentrifugation device (Millipore). The concentrations of VEGF-A in culture supernatants were determined with quantitative sandwich ELISA assay according to the manufacturer's instruction. Briefly, cell supernatant (50 μl) was incubated with 50 μl of assay diluents for 2 hours at room temperature in a 96-well tissue culture plate coated with monoclonal antibodies against VEGF-A. After five consecutive washes, a conjugate consisting of polyclonal VEGF-A antibodies and HRP was added. The mixture was incubated for 2 hours at room temperature. Following the subsequent addition of a color reagent, absorbance was read at 450 nm using a Thermo-Max microplate reader (Molecular Devices Co., Menlo Park, Calif.).

[1] = target: T1, IL-6Rα in different cell lines (Homo sapiens, UniProt P08887); assay: In vitro competition assay of synthetic peptides on cell lines; type: cell-based; settings: synthetic peptide; FIG. 3
T1 construct: all membrane-type IL-6Rα-expressing cell lines; endogenous in cells
T1 sequence (P08887 20-468): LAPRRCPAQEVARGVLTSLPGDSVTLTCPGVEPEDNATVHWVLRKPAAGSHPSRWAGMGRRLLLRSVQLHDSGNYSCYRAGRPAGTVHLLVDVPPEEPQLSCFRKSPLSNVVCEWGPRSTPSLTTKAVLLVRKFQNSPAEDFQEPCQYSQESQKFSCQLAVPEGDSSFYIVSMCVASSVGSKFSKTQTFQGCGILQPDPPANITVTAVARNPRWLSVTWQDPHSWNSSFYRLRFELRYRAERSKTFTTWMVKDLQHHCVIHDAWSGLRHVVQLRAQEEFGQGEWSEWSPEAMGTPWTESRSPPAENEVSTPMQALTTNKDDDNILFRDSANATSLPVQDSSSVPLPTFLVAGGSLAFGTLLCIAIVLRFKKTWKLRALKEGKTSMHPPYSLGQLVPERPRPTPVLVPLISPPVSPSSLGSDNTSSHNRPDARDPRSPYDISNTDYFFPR
Protocol: The binding affinities to IL-6Rα of the 7 independent peptide sequences of the IR-6Rα-binding clones selected from phage display peptide library (Table 1) were confirmed. The phage clones with the inserted DNA encoding these 7 different peptide sequences (phage S1˜S7) were added into IL-6Rα coated 96-well cell culture plates (10^12 pfu/ml) and incubated with IL-6Rα for 1 hour. IL-6 protein (50 ng/ml, 100 μl) was added to the wells and incubated at room temperature for 2 hours. The plates were thoroughly washed with 0.1% BSA (bovine serum albumin)/PBS (phosphate-buffered saline) buffer (pH 8.5). Finally, biotin-conjugated anti-IL-6 monoclonal antibody, horseradish peroxidase (HRP)-conjugated streptavidin and tetramethyl benzidine (TMB) substrate solution were used to perform the known phage Enzyme-Linked Immunosorbent Assay (ELISA) to determine the L-6 protein bound to the cell plates.
Oligopeptides encoded by the inserted DNA in phages S7 and S1 (labeled as ‘peptide S7’ (SEQ ID NO: 7) or ‘peptide S1’ (SEQ ID NO: 1) hereafter) were produced by the known peptide synthesis method. The binding assay described in Example 1 was carried out, but using peptide S7 or peptide S1 (negative control) instead of phage clones, and using cell lines instead of IL-6Rα to perform competition assay and get the result shown in FIG. 3.

C33A/IL-6 cells = assay: Tumor growth inhibition in SCID mice injected with C33A/IL-6 cells; type: in vivo; settings: 50 mg/kg i.p. every 2 days, FIG. 9
Protocol: Six- to 8-week-old female severe combined immunodeficient (SCID) mice were […] with 1×10^6 C33A/neo or C33A/IL-6 cells. Beginning 3 days later, S1 or S7 peptide (50 mg/kg, dissolved in PBS) was injected i.p. every 2 days. Tumor development was followed in measurements of length (L) and width (W).

HUVECs [2] = assay: HUVEC proliferation induced by IL-6-CM, trypan blue exclusion; type: cell-based, human; settings: CM from IL-6-overexpressed cells; 24 hours; FIG. 6
Protocol: as §1
HUVECs were plated onto six-well dishes (Falcon, Becton Dickinson) at a concentration of 2.5×10^5 cells per well in M199 medium supplemented with 10% FBS. One day after seeding, HUVECs were stimulated with CM from cells treated in various ways respectively, where the CM was mixed with M199 medium. Twenty-four hours later, the viable cells were counted using a trypan blue exclusion method.
For the trypan blue exclusion assay, cells were washed with PBS, trypsinized, and then resuspended in 1 ml PBS. Trypan blue-stained cells were then counted using a modified Neubauer hemocytometer under a phase-contrast light microscope.

[3] = test system: IL-6-induced angiogenesis; assay: Matrigel plug assay, hemoglobin level; type: in vivo; settings: BALB/c nude mice; plugs recovered after 7 days; FIG. 8
Protocol: On the other hand, Matrigel plug assay was performed to analyze the inhibiting effect on IL-6-induced angiogenesis of peptide S7. Matrigel (500 μl) containing CM from cells treated in various ways was […] into 4- to 8-week-old female BALB/c nude mice at sites lateral to the abdominal midline. Aforementioned CM was obtained either from vector control cells or from IL-6 overexpressed C33A cells in the presence or absence of peptide S7. The Matrigel plugs were recovered after 7 days of implementation, dissolved in PBS, and incubated at 4° C. overnight. Hemoglobin levels were determined using Drabkin's solution (Sigma Chemical) according to the manufacturer's instructions to get the result shown in FIG. 8.

Mcl-1 protein = assay: Western blot of IL-6-induced Mcl-1 protein in C33A cells; type: cell-based, human; settings: FIG. 4B
Protocol: (§2) 80% confluent C33A cells were starved for 24 hours and then treated with human IL-6 protein (50 ng/mL) in the presence or absence of S1 peptide (50 μmol/L) or S7 peptide (50 μmol/L). Cell lysates were obtained and subjected to SDS-PAGE separation and Western blot analysis using various antibodies for immunoblotting, such as anti-phospho-ERK1/2, anti-phospho-Akt, anti-ERK1/2, and anti-Akt.
Equal amounts of cell lysates (75 μg) were resolved by SDS-PAGE, transferred to polyvinylidene difluoride membranes, and probed with specific anti-Mcl-1 antibodies as described above. β-actin served as the internal loading control to get the result shown in FIG. 4A.

HUVECs [4] = assay: Capillary tube-like formation by HUVECs on Matrigel; type: cell-based, human; settings: 6 hours, FIG. 7
Protocol: In vitro Assessment using a growth factor-reduced basement membrane Matrigel matrix was carried out to evaluate capillary tube-like formation. The Matrigel was thawed at 4° C. and mixed to homogeneity. The bottom of 96-well cell culture plates were coated with a thin layer of Matrigel (40 μl) and allow the Matrigel to polymerize at 37° C. for 30 minutes. HUVECs were resuspended in M199 medium containing 1% serum to a density of 2.5×10^4 cells/100 μl, mixed with 100 μl of M199 medium containing 1% serum and 100 μl CM from either C33A/neo or C33A/IL-6 cells treated in various ways, and finally plated onto the Matrigel-coated surface. Six hours later, cells were fixed in 4% paraformaldehyde and stained with 0.1% crystal violet. Three microscopic fields were selected at random and photographed, and the number of tube-like structures per field was determined to get the result shown in FIG. 7.

[5] = test system: Ras/MAPK and PI3-K/Akt signaling pathways; assay: Western blot of IL-6-induced Akt and ERK1/2 phosphorylation in C33A cells; type: cell-based, human; settings: IL-6 50 ng/mL, peptide 50 μmol/L, FIG. 4A
Protocol: as §2

| Substance | IL-6-mediated VEGF-A secretion (VEGF-A) | antagonism of the binding of IL-6 to IL-6Rα in different cell lines [1] | IL-6-induced tumor growth (C33A/IL-6 cells) | tumor growth inhibition at the end of the experiment (C33A/IL-6 cells; tumor volume) | IL-6-CM induced HUVECs proliferation (HUVECs [2]) | hemoglobin induction in Matrigel plugs containing C33A/IL-6-CM [3] | IL-6-induced up-regulation of Mcl-1 protein (Mcl-1 protein) | C33A/IL-6-CM induced tube-like cell cord formation (HUVECs [4]) | inhibition of IL-6-induced phosphorylated Akt level [5] | inhibition of IL-6-induced phosphorylated ERK1/2 MAPK level [5] |
| --- | --- | --- | --- | --- | --- | --- | --- | --- | --- | --- |
| LSLITRL [peptide S7] | significantly decreased | antagonize the binding | significantly reduced | 76% | greatly attenuated | almost completely inhibited | antagonized | almost completely inhibited | significantly inhibited | significantly inhibited |
| LSLMPRL [peptide S1, negative control peptide, reference compound] | – | – | – | – | not | – | – | – | not | not |
